Results: PubChem BioAssay (NCI)
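Test compounds were applied to cells in 96-well plates for 48 hours at 5 doses. TGI is the concentration that stops growth completely.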

Legend:
Test in all cases: growth of human tumour cells (NCI), 48 h
HOP-92 NSCLC = system: HOP-92 NSCLC
SF-295 CNS = system: SF-295 CNS
OVCAR-8 ovarian = system: OVCAR-8 ovarian
HS 578T breast = system: HS 578T breast
786-0 renal = system: 786-0 renal
NCI-H460 lung = system: NCI-H460 lung
M14 melanoma = system: M14 melanoma
UACC-62 melanoma = system: UACC-62 melanoma
MDA-MB-231 breast = system: MDA-MB-231 breast
EKVX NSCLC = system: EKVX NSCLC
UO-31 renal = system: UO-31 renal
UACC-257 melanoma = system: UACC-257 melanoma
HCC-2998 colon = system: HCC-2998 colon
MCF7 breast = system: MCF7 breast
SK-MEL-2 melanoma = system: SK-MEL-2 melanoma
OVCAR-5 ovarian = system: OVCAR-5 ovarian
OVCAR-3 ovarian = system: OVCAR-3 ovarian
SNB-75 CNS = system: SNB-75 CNS
SW-620 colon = system: SW-620 colon
HCT-116 colon = system: HCT-116 colon
IGROV1 ovarian = system: IGROV1 ovarian
MALME-3M melanoma = system: MALME-3M melanoma
A498 renal = system: A498 renal
SK-OV-3 ovarian = system: SK-OV-3 ovarian
ACHN renal = system: ACHN renal
BT-549 breast = system: BT-549 breast
CAKI-1 renal = system: CAKI-1 renal
NCI/ADR-RES ovarian = system: NCI/ADR-RES ovarian
COLO 205 colon = system: COLO 205 colon
OVCAR-4 ovarian = system: OVCAR-4 ovarian
K-562 leukemia = system: K-562 leukemia
DU-145 prostate = system: DU-145 prostate
SK-MEL-28 melanoma = system: SK-MEL-28 melanoma
MDA-MB-435 = system: MDA-MB-435
SNB-19 CNS = system: SNB-19 CNS
T-47D breast = system: T-47D breast
TK-10 renal = system: TK-10 renal
NCI-H522 lung = system: NCI-H522 lung
SF-268 CNS = system: SF-268 CNS
RPMI-8226 leukemia = system: RPMI-8226 leukemia
HOP-62 NSCLC = system: HOP-62 NSCLC
MDA-N = system: MDA-N
CCRF-CEM leukemia = system: CCRF-CEM leukemia
A549 NSCLC = system: A549 NSCLC
HT29 colon = system: HT29 colon
MOLT-4 leukemia = system: MOLT-4 leukemia
U251 CNS = system: U251 CNS
KM12 colon = system: KM12 colon
PC-3 prostate = system: PC-3 prostate
RXF 393 renal = system: RXF 393 renal
NCI-H23 lung = system: NCI-H23 lung
HCT-15 colon = system: HCT-15 colon
SK-MEL-5 melanoma = system: SK-MEL-5 melanoma
SN12C renal = system: SN12C renal
SF-539 CNS = system: SF-539 CNS
HL-60(TB) leukemia = system: HL-60(TB) leukemia
NCI-H226 lung = system: NCI-H226 lung
LOX IMVI melanoma = system: LOX IMVI melanoma

COC(=NCCC1=CCCCC1)OC
TGI (HOP-92 NSCLC): > 100 µM
TGI (SF-295 CNS): > 100 µM
TGI (OVCAR-8 ovarian): > 100 µM
TGI (HS 578T breast): > 100 µM
TGI (786-0 renal): > 100 µM
TGI (NCI-H460 lung): > 100 µM
TGI (M14 melanoma): 47.3 µM
TGI (UACC-62 melanoma): > 100 µM
TGI (MDA-MB-231 breast): > 100 µM
TGI (EKVX NSCLC): > 100 µM
TGI (UO-31 renal): > 100 µM
TGI (UACC-257 melanoma): > 100 µM
TGI (HCC-2998 colon): 39.9 µM
TGI (MCF7 breast): > 100 µM
TGI (SK-MEL-2 melanoma): > 100 µM
TGI (OVCAR-5 ovarian): > 100 µM
TGI (OVCAR-3 ovarian): > 100 µM
TGI (SNB-75 CNS): > 100 µM
TGI (SW-620 colon): > 100 µM
TGI (HCT-116 colon): > 100 µM
TGI (IGROV1 ovarian): > 100 µM
TGI (MALME-3M melanoma): > 100 µM
TGI (A498 renal): > 100 µM
TGI (SK-OV-3 ovarian): > 100 µM
TGI (ACHN renal): > 100 µM
TGI (BT-549 breast): > 100 µM
TGI (CAKI-1 renal): > 100 µM
TGI (NCI/ADR-RES ovarian): > 100 µM
TGI (COLO 205 colon): 31.2 µM
TGI (OVCAR-4 ovarian): > 100 µM
TGI (K-562 leukemia): > 100 µM
TGI (DU-145 prostate): > 100 µM
TGI (SK-MEL-28 melanoma): > 100 µM
TGI (MDA-MB-435): > 100 µM
TGI (SNB-19 CNS): > 100 µM
TGI (T-47D breast): > 100 µM
TGI (TK-10 renal): > 100 µM
TGI (NCI-H522 lung): > 100 µM
TGI (SF-268 CNS): > 100 µM
TGI (RPMI-8226 leukemia): 85.8 µM
TGI (HOP-62 NSCLC): > 100 µM
TGI (MDA-N): > 100 µM
TGI (CCRF-CEM leukemia): > 100 µM
TGI (A549 NSCLC): > 100 µM
TGI (HT29 colon): 82.9 µM
TGI (MOLT-4 leukemia): > 100 µM
TGI (U251 CNS): > 100 µM
TGI (KM12 colon): > 100 µM
TGI (PC-3 prostate): > 100 µM
TGI (RXF 393 renal): > 100 µM
TGI (NCI-H23 lung): > 100 µM
TGI (HCT-15 colon): > 100 µM
TGI (SK-MEL-5 melanoma): > 100 µM

O=C(OCC12CC3CC(CC(C3)C1)C2)c1ccc(NCc2cc(O)ccc2O)cc1
TGI (SN12C renal): 18.7 µM
TGI (HOP-92 NSCLC): 17.6 µM
TGI (SF-295 CNS): 17.7 µM
TGI (OVCAR-8 ovarian): 7.28 µM
TGI (HS 578T breast): 12.1 µM
TGI (786-0 renal): 2.35 µM
TGI (NCI-H460 lung): 7.5 µM
TGI (M14 melanoma): 5.77 µM
TGI (UACC-62 melanoma): 3.93 µM
TGI (MDA-MB-231 breast): 11.6 µM
TGI (EKVX NSCLC): 9.26 µM
TGI (UO-31 renal): 1.96 µM
TGI (UACC-257 melanoma): 3.28 µM
TGI (HCC-2998 colon): 4.02 µM
TGI (SF-539 CNS): 1.93 µM
TGI (HL-60(TB) leukemia): 15 µM
TGI (MCF7 breast): 36.8 µM
TGI (SK-MEL-2 melanoma): 8.12 µM
TGI (OVCAR-5 ovarian): 4.71 µM
TGI (OVCAR-3 ovarian): 1.67 µM
TGI (SNB-75 CNS): 7.23 µM
TGI (SW-620 colon): > 25.7 µM
TGI (HCT-116 colon): 10.3 µM
TGI (IGROV1 ovarian): 3.21 µM
TGI (A498 renal): 11.8 µM
TGI (SK-OV-3 ovarian): 20.4 µM
TGI (ACHN renal): 7.04 µM
TGI (BT-549 breast): 1.25 µM
TGI (CAKI-1 renal): 2.06 µM
TGI (NCI/ADR-RES ovarian): 8.97 µM
TGI (COLO 205 colon): 2.8 µM
TGI (OVCAR-4 ovarian): 6.28 µM
TGI (K-562 leukemia): > 49.2 µM
TGI (DU-145 prostate): 18.7 µM
TGI (SK-MEL-28 melanoma): 3.54 µM
TGI (MDA-MB-435): 7.06 µM
TGI (SNB-19 CNS): 11 µM
TGI (T-47D breast): 2.06 µM
TGI (NCI-H226 lung): 6.71 µM
TGI (TK-10 renal): 4.83 µM
TGI (NCI-H522 lung): 0.854 µM
TGI (SF-268 CNS): 20.5 µM
TGI (RPMI-8226 leukemia): 1.68 µM
TGI (HOP-62 NSCLC): 16 µM
TGI (MDA-N): 16.7 µM
TGI (A549 NSCLC): 12.6 µM
TGI (HT29 colon): 14.6 µM
TGI (U251 CNS): 5.33 µM
TGI (KM12 colon): 4.52 µM
TGI (PC-3 prostate): 4.88 µM
TGI (LOX IMVI melanoma): 4.72 µM
TGI (RXF 393 renal): 3.03 µM
TGI (NCI-H23 lung): 3.88 µM
TGI (HCT-15 colon): 5.75 µM
TGI (SK-MEL-5 melanoma): 2.9 µM
